Test results taken from ChEMBL document CHEMBL3414474, “Design and synthesis of piperidine derivatives as novel human heat shock protein 70 inhibitors for the treatment of drug-resistant tumors” (Eur J Med Chem, 2015).
Activity calls are given as the source filed them. No cut-off for these calls is given here.

What was measured:
[1] = Growth inhibition of human SK/LapR1.0 cells at 5 uM incubated for 72 hrs by ATP detection based luminescent assay; format: functional; conditions: read-out: GI
[2] = Binding affinity to human HSP70 at 25 degC by surface plasmon resonance assay
Homo sapiens = organism: Homo sapiens; test: Inhibition of HSP70 (unknown origin) at 200 uM pre-incubated for 30 mins followed by ATP addiction and measured after 3 hrs by malachite green reagent based colorimetric assay
MDA-MB-361 = test: Growth inhibition of human MDA-MB-361 cells at 5 uM incubated for 72 hrs by ATP detection based luminescent assay; format: functional; conditions: MDA-MB-361, 72 h, read-out: GI
HepG2 = test: Growth inhibition of human HepG2 cells at 0.016 to 4 uM incubated for 72 hrs by ATP detection based luminescent assay; format: functional, cell-based
Huh-7 = test: Growth inhibition of human HuH7 cells at 0.016 to 4 uM incubated for 72 hrs by ATP detection based luminescent assay; format: functional, cell-based
HT-29 = test: Growth inhibition of human HT-29 cells at 0.016 to 4 uM incubated for 72 hrs by ATP detection based luminescent assay; format: functional, cell-based
[3] = Growth inhibition of human BT/LapR1.0 cells at 5 uM incubated for 72 hrs by ATP detection based luminescent assay; format: functional; conditions: read-out: GI
MDA-MB-453 = test: Growth inhibition of human MDA-MB-453 cells at 5 uM incubated for 72 hrs by ATP detection based luminescent assay; format: functional; conditions: MDA-MB-453, 72 h, read-out: GI
[4] = Growth inhibition of human WI38 cells at 0.016 to 4 uM incubated for 72 hrs by ATP detection based luminescent assay; format: cell-based; conditions: wi-38, 72 h
[5] = Growth inhibition of human SKBR3 cells at 5 uM incubated for 72 hrs by ATP detection based luminescent assay; format: functional; conditions: SK-BR-3, 72 h, read-out: GI
COLO 205 = test: Growth inhibition of human COLO205 cells at 0.016 to 4 uM incubated for 72 hrs by ATP detection based luminescent assay; format: functional, cell-based
NCI-H460 = test: Growth inhibition of human H460 cells at 0.016 to 4 uM incubated for 72 hrs by ATP detection based luminescent assay; format: functional, cell-based
A549 = test: Growth inhibition of human A549 cells at 0.016 to 4 uM incubated for 72 hrs by ATP detection based luminescent assay; format: functional, cell-based
[6] = Growth inhibition of human BT474 cells at 5 uM incubated for 72 hrs by ATP detection based luminescent assay; format: functional; conditions: BT-474, 72 h, read-out: GI
[7] = Growth inhibition of human BT474 cells incubated for 72 hrs by ATP detection based luminescent assay; format: functional, cell-based; conditions: BT-474, 72 h
NCI-N87 = test: Growth inhibition of human NCI-N87 cells at 0.016 to 4 uM incubated for 72 hrs by ATP detection based luminescent assay; format: functional, cell-based
BGC-823 = test: Growth inhibition of human BGC823 cells at 0.016 to 4 uM incubated for 72 hrs by ATP detection based luminescent assay; format: functional, cell-based
ASPC1 = test: Growth inhibition of human AsPC1 cells at 0.016 to 4 uM incubated for 72 hrs by ATP detection based luminescent assay; format: functional, cell-based
MRC5 = test: Growth inhibition of human MRC5 cells at 0.016 to 4 uM incubated for 72 hrs by ATP detection based luminescent assay; format: cell-based; conditions: mrc5, 72 h
[8] = Growth inhibition of human BT/LapR1.0 cells incubated for 72 hrs by ATP detection based luminescent assay; format: functional
MIA PaCa-2 = test: Growth inhibition of human MIAPaCa2 cells at 0.016 to 4 uM incubated for 72 hrs by ATP detection based luminescent assay; format: functional, cell-based
Mus musculus [9] = test: Acute toxicity in female KM mouse assessed as mouse mortality at 1296 mg/kg dosed as single oral gavage measured during day 1 to day 14 post dose; format: organism-based; set-up: dose 1296 mg/kg, route oral; conditions: in vivo
Mus musculus [10] = test: Acute toxicity in female KM mouse assessed as mouse mortality at 520 mg/kg dosed as single oral gavage measured during day 1 to day 14 post dose; format: organism-based; set-up: dose 520 mg/kg, route oral; conditions: in vivo
Mus musculus [11] = test: Acute toxicity in female KM mouse assessed as mouse mortality at 1555 mg/kg dosed as single oral gavage measured after 5 mins during day 1 to day 14 post dose; format: organism-based; set-up: dose 1555 mg/kg, route oral; conditions: in vivo
Mus musculus [12] = test: Acute toxicity in male KM mouse assessed as mouse mortality at 1555 mg/kg dosed as single oral gavage measured after 5 mins during day 1 to day 14 post dose; format: organism-based; set-up: dose 1555 mg/kg, route oral; conditions: in vivo
Mus musculus [13] = test: Acute toxicity in male KM mouse assessed as mouse mortality at 1080 mg/kg dosed as single oral gavage measured during day 1 to day 14 post dose; format: organism-based; set-up: dose 1080 mg/kg, route oral; conditions: in vivo
Mus musculus [14] = test: Acute toxicity in male KM mouse assessed as mouse mortality at 520 mg/kg dosed as single oral gavage measured during day 1 to day 14 post dose; format: organism-based; set-up: dose 520 mg/kg, route oral; conditions: in vivo
Mus musculus [15] = test: Acute toxicity in female KM mouse assessed as mouse mortality at 625 mg/kg dosed as single oral gavage measured during day 1 to day 14 post dose; format: organism-based; set-up: dose 625 mg/kg, route oral; conditions: in vivo
Mus musculus [16] = test: Acute toxicity in female KM mouse assessed as induction of organ abnormalities mortality at 520 to 1555 mg/kg dosed as single oral gavage measured during day 1 to day 14 post dose; format: organism-based; set-up: dose 520-1555 mg/kg, route oral; conditions: in vivo
Mus musculus [17] = test: Acute toxicity in male KM mouse assessed as induction of organ abnormalities mortality at 520 to 1555 mg/kg dosed as single oral gavage measured during day 1 to day 14 post dose; format: organism-based; set-up: dose 520-1555 mg/kg, route oral; conditions: in vivo

Compound	Kd [2] [nM]	inhibition (Homo sapiens) [%]	inhibition of growth at 5 µM [1] [%]	inhibition of growth at 5 µM (MDA-MB-361) [%]	growth inhibition (GI) (HepG2)	growth inhibition (GI) (Huh-7)	growth inhibition (GI) (HT-29)	inhibition of growth at 5 µM [3] [%]	inhibition of growth at 5 µM (MDA-MB-453) [%]	growth inhibition (GI) [4]	inhibition of growth at 5 µM [5] [%]	growth inhibition (GI) (COLO 205)	growth inhibition (GI) (NCI-H460)	growth inhibition (GI) (A549)	inhibition of growth at 5 µM [6] [%]	IC50 [7] [nM]	growth inhibition (GI) (NCI-N87)	growth inhibition (GI) (BGC-823)	growth inhibition (GI) (ASPC1)	growth inhibition (GI) (MRC5)	further results
CSc1ncc(CN2CCC(N(C)Cc3cccc(Cl)c3)CC2)s1	245	–	7.3	–	–	–	–	–	–	–	–	–	–	–	–	–	–	–	–	–	–
CSc1nccc(N2CCC(N(C)Cc3c(Cl)cccc3Cl)CC2)n1	–	12.8	71	53.2	Active	Active	Active	70	79.2	Non-toxic	85.9	Active	Active	Active	73.1	780	Active	Active	Active	Non-toxic	IC50 [8]: 700 nM; growth inhibition (GI) (MIA PaCa-2): Active
CSc1nccc(N2CCC(N(C)Cc3ccc(Cl)cc3Cl)CC2)n1	–	8.28	–	–	Active	Active	Active	–	–	Non-toxic	–	Active	Active	Active	–	1620	Active	Active	Active	Non-toxic	IC50 [8]: 1680 nM; growth inhibition (GI) (MIA PaCa-2): Active
COc1nccc(N2CCC(N(C)Cc3ccccc3Cl)CC2)n1	–	6.11	35.8	45.1	–	–	–	28.6	60.8	–	41.4	–	–	–	36.7	–	–	–	–	–	–
CSc1nccc(N2CCC(N(C)Cc3ccccc3Cl)CC2)n1	–	11.6	34.2	36.2	Active	Active	Active	17.5	45.3	Non-toxic	22.2	Active	Active	Active	21.3	1990	Active	Active	Active	Non-toxic	IC50 [8]: 1700 nM; growth inhibition (GI) (MIA PaCa-2): Active
CSc1nccc(N2CCC(N(C)Cc3ccc(C#N)cc3)CC2)n1	246	8.14	86.1	46.9	Active	Active	Active	76.2	82.4	Non-toxic	83.4	Active	Active	Active	75.5	1410	Active	Active	Active	Non-toxic	Activity (Mus musculus [9]): Toxic; Activity (Mus musculus [10]): Non-toxic; Activity (Mus musculus [11]): Toxic; Activity (Mus musculus [12]): Toxic; Activity (Mus musculus [13]): Toxic; Activity (Mus musculus [14]): Non-toxic; Activity (Mus musculus [15]): Non-toxic; Activity (Mus musculus [16]): Non-toxic; Activity (Mus musculus [17]): Non-toxic; IC50 [8]: 1470 nM; growth inhibition (GI) (MIA PaCa-2): Active
CSc1nccc(N2CCC(N(C)Cc3c(F)cccc3Cl)CC2)n1	–	20.4	–	–	Active	Active	Active	–	–	Non-toxic	–	Active	Active	Active	–	1040	Active	Active	Active	Non-toxic	IC50 [8]: 940 nM; growth inhibition (GI) (MIA PaCa-2): Active
CCOc1ncc(CN2CCC(N(C)Cc3ccc(Cl)cc3Cl)CC2)s1	–	4.5	12	–	–	–	–	–	–	–	–	–	–	–	–	–	–	–	–	–	–
CSc1nccc(N2CCC(N(C)Cc3ccccc3C#N)CC2)n1	–	16.7	80.7	64.1	–	–	–	68.1	68.7	–	87.6	–	–	–	74.2	–	–	–	–	–	–
CSc1ncc(CN2CCC(N(C)Cc3ccc(Cl)cc3Cl)CC2)s1	–	6.21	–	–	–	–	–	–	–	–	–	–	–	–	70	–	–	–	–	–	–

More lines, main results first:

Kd [2] [nM]	inhibition (Homo sapiens) [%]	Compound	inhibition of growth at 5 µM [1] [%]	inhibition of growth at 5 µM (MDA-MB-361) [%]	growth inhibition (GI) (HepG2)	growth inhibition (GI) (Huh-7)	growth inhibition (GI) (HT-29)	inhibition of growth at 5 µM [3] [%]	inhibition of growth at 5 µM (MDA-MB-453) [%]	growth inhibition (GI) [4]	inhibition of growth at 5 µM [5] [%]	growth inhibition (GI) (COLO 205)	growth inhibition (GI) (NCI-H460)	growth inhibition (GI) (A549)	inhibition of growth at 5 µM [6] [%]	IC50 [7] [nM]	growth inhibition (GI) (NCI-N87)	growth inhibition (GI) (BGC-823)	growth inhibition (GI) (ASPC1)	growth inhibition (GI) (MRC5)	further results
204	7.73	CSc1nccc(N2CCC(N(C)Cc3ccc(F)cc3)CC2)n1	–	46	–	–	–	–	–	–	–	–	–	–	–	–	–	–	–	–	–
281	–	COc1nccc(N2CCC(N(C)Cc3ccc(F)cc3)CC2)n1	9	–	–	–	–	–	–	–	–	–	–	–	–	–	–	–	–	–	–
200	10.6	CSc1ncc(CN2CCC(N(C)Cc3ccc(C)cc3)CC2)s1	–	–	–	–	–	–	–	–	–	–	–	–	–	–	–	–	–	–	–
206	43	N#Cc1ccc(COC[C@H]2O[C@@H](n3c(NCc4ccc(Cl)c(Cl)c4)nc4c(N)ncnc43)[C@H](O)[C@@H]2O)cc1	–	–	–	–	–	–	–	–	–	–	–	–	–	–	–	–	–	–	–
